Test results as given in patent publication US4959363A, “Quinolonecarboxamide compounds, their preparation and use as antivirals” (Sterling Drug Inc., priority 1989, dated 1990).

Assays:
herpes simplex virus = assay: In Vivo - Intravaginal Herpes Virus Infection in Mice; parameters: species or system albino mice; details: Mus musculus, 336 h, oral or intraperitoneal, b.i.d. 5 days, NA = Not active at dose levels tested, read-out: In Vivo MED (Minimum effective dose)
Method: In Vivo - Intravaginal Herpes Virus Infection in Mice
Approximately 1 hr. prior to infection, the vaginas of 15 gm albino mice were swabbed with cotton saturated with 0.1 N NaOH to remove vaginal secretions and to irritate the vaginal mucosa slightly. At the proper time, 0.05 ml of an appropriate dose of herpes simplex virus was placed deep in the vagina. Starting 2.5 hrs. prior to infection, the mice were medicated either orally or intraperitoneally. Medication was continued daily for a total of 5 days on a b.i.d. regimen. The test was terminated after 14 days. A comparison of the number of surviving mice and/or extension of survival was made at the end of the test. The criterion for activity was a statistically significant extension of the average survival time of the test group over that of the control mice in two experiments.

[1] = In vitro maximum tolerated dose (MTL), Vero cells; assay type: cell-based, African Green Monkey; details: monkey, In Vitro
[2] = parameters: species or system albino mice; details: mouse

In the case of `NC(=O)c1cn(-c2ccc(F)cc2)c2cc(-c3ccncc3)ccc2c1=O` [Example 1h, 1-(4-fluorophenyl)-1,4-dihydro-4-oxo-7-(4-pyridinyl)-3-quinolinecarboxamide], the minimal effective dose (herpes simplex virus) is reported as 12.5 to 25 mg/kg/day, the MNTC at 72 h ([1]; vero cells) is reported as > 3.1 µg/mL and the “In Vivo MTL (Maximum tolerated dose)” value [2] is reported as 50-100.

For `NC(=O)c1cn(-c2ccc(F)cc2)c2cc(-c3cc[n+]([O-])cc3)ccc2c1=O` [Example 2, 1-(4-Fluorophenyl)-1,4-dihydro-4-oxo-7-(N-oxide-4-pyridinyl)-3-quinolinecarboxamide], the minimal effective dose (herpes simplex virus) was 25 mg/kg/day, the MNTC at 72 h ([1]; vero cells) was > 12.5 µg/mL and the “In Vivo MTL (Maximum tolerated dose)” value [2] was 100.

In the case of `CCN(CC)CNC(=O)c1cn(-c2ccc(F)cc2)c2cc(-c3ccncc3)ccc2c1=O` [Example 3, N-(Diethylaminomethyl)-1-(4-fluorophenyl)-1,4-dihydro-4-oxo-7-(4-pyridinyl)-3-quinolinecarboxamide], the minimal effective dose (herpes simplex virus) is reported as 50 mg/kg/day, the MNTC at 72 h ([1]; vero cells) is reported as 12.5 µg/mL and the “In Vivo MTL (Maximum tolerated dose)” value [2] is reported as 100.

In the case of `O=C(NCN1CCOCC1)c1cn(-c2ccc(F)cc2)c2cc(-c3ccncc3)ccc2c1=O` [Example 4, N-(4-Morpholinylmethyl)-1-(4-fluorophenyl)-1,4-dihydro-4-oxo-7-(4-pyridinyl)-3-quinolinecarboxamide], the MNTC at 72 h ([1]; vero cells) is reported as > 12.5 µg/mL.

For `O=C(NCN1CCCCC1)c1cn(-c2ccc(F)cc2)c2cc(-c3ccncc3)ccc2c1=O` [Example 5, N-(1-Piperidinylmethyl)-1-(4-fluorophenyl)-1,4-dihydro-4-oxo-7-(4-pyridinyl)-3-quinolinecarboxamide], the MNTC at 72 h ([1]; vero cells) was > 12.5 µg/mL.

With `CCn1cc(C(N)=O)c(=O)c2ccc(-c3ccncc3)cc21` [Example 6, 1-Ethyl-1,4-dihydro-4-oxo-7-(4-pyridinyl)-3-quinolinecarboxamide] the minimal effective dose (herpes simplex virus) was 50 mg/kg/day, the MNTC at 72 h ([1]; vero cells) was 12.5 µg/mL and the “In Vivo MTL (Maximum tolerated dose)” value [2] was 50.

In the case of `CCn1cc(C(N)=O)c(=O)c2ccc(-c3cc(C)nc(C)c3)cc21` [Example 7, 1-Ethyl-1,4-dihydro-4-oxo-7-(2,6-dimethyl-4-pyridinyl)-3quinolinecarboxamide], the MNTC at 72 h ([1]; vero cells) is reported as 12.5 µg/mL and the “In Vivo MTL (Maximum tolerated dose)” value [2] is reported as 25.

With `COc1ccc(-n2cc(C(N)=O)c(=O)c3ccc(-c4ccncc4)cc32)cc1` [Example 8, 1,4-Dihydro-1-(4-methoxyphenyl)-4-oxo-7-(4-pyridinyl)-3quinolinecarboxamide] the MNTC at 72 h ([1]; vero cells) was > 25 µg/mL and the “In Vivo MTL (Maximum tolerated dose)” value [2] was 50.

For `CC(C)(C)c1ccc(-n2cc(C(N)=O)c(=O)c3ccc(-c4ccncc4)cc32)cc1` [Example 9, 1-[4-(1,1-Dimethylethyl)phenyl]-1,4-dihydro-4-oxo-7-(4-pyridinyl)-3-quinolinecarboxamide], the MNTC at 72 h ([1]; vero cells) was > 25 µg/mL.

With `NC(=O)c1cn(C2CC2)c2cc(-c3ccncc3)ccc2c1=O` [Example 11, 1-Cyclopropyl-1,4-dihydro-4-oxo-7-(4-pyridinyl)-3-quinolinecarboxamide] the MNTC at 72 h ([1]; vero cells) was 25 µg/mL and the “In Vivo MTL (Maximum tolerated dose)” value [2] was 25.

For `NC(=O)c1cn(Cc2ccc(Cl)c(Cl)c2)c2cc(-c3ccncc3)ccc2c1=O` [Example 12, 1-(3,4-Dichlorobenzyl)-1,4-dihydro-4-oxo-7-(4-pyridinyl)-3-quinolinecarboxamide], the MNTC at 72 h ([1]; vero cells) was > 100 µg/mL and the “In Vivo MTL (Maximum tolerated dose)” value [2] was > 100.

With `Cc1ccc(-n2cc(C(N)=O)c(=O)c3ccc(-c4ccncc4)cc32)cc1C` [Example 13, 1,4-Dihydro-1-(3,4-dimethylphenyl)-4-oxo-7-(4-pyridinyl)-3-quinolinecarboxamide] the MNTC at 72 h ([1]; vero cells) was > 100 µg/mL.

With `NC(=O)c1cn(-c2ccc(F)cc2F)c2cc(-c3ccncc3)ccc2c1=O` [Example 15, 1-(2,4-Difluorophenyl)-1,4-dihydro-4-oxo-7-(4-pyridinyl)-3-quinolinecarboxamide] the MNTC at 72 h ([1]; vero cells) was 3.1 µg/mL and the “In Vivo MTL (Maximum tolerated dose)” value [2] was < 25.

For `Cn1cc(C(N)=O)c(=O)c2ccc(-c3ccncc3)cc21` [Example 16, 1,4-Dihydro-1-methyl-4-oxo-7-(4-pyridinyl)-3-quinolinecarboxamide], the MNTC at 72 h ([1]; vero cells) was > 25 µg/mL and the “In Vivo MTL (Maximum tolerated dose)” value [2] was 25.

With `CCCCn1cc(C(N)=O)c(=O)c2ccc(-c3ccncc3)cc21` [Example 17, 1-Butyl-1,4-dihydro-4-oxo-7-(4-pyridinyl)-3-quinolinecarboxamide] the MNTC at 72 h ([1]; vero cells) was 6.2 µg/mL and the “In Vivo MTL (Maximum tolerated dose)” value [2] was 50.

`CCCn1cc(C(N)=O)c(=O)c2ccc(-c3ccncc3)cc21` [Example 18, 1,4-Dihydro-4-oxo-1-propyl-7-(4-pyridinyl)-3-quinolinecarboxamide] gave an MNTC at 72 h ([1]; vero cells) of 6.25 µg/mL.

In the case of `C=CCn1cc(C(N)=O)c(=O)c2ccc(-c3ccncc3)cc21` [Example 19, 1,4-Dihydro-4-oxo-1-(2-propenyl)-7-(4-pyridinyl)-3-quinolinecarboxamide], the MNTC at 72 h ([1]; vero cells) is reported as 6.25 µg/mL and the “In Vivo MTL (Maximum tolerated dose)” value [2] is reported as < 50.

With `CCn1cc(C(N)=O)c(=O)c2ccc(-c3ccccn3)cc21` [Example 20, 1-Ethyl-1,4-dihydro-4-oxo-7-(2-pyridinyl)-3-quinolinecarboxamide] the MNTC at 72 h ([1]; vero cells) was 25 µg/mL and the “In Vivo MTL (Maximum tolerated dose)” value [2] was 100.

In the case of `NC(=O)c1cn(-c2ccccc2)c2cc(-c3ccncc3)ccc2c1=O` [Example 21, 1,4-Dihydro-4-oxo-1-phenyl-7-(4-pyridinyl)-3-quinolinecarboxamide], the MNTC at 72 h ([1]; vero cells) is reported as 6.25 µg/mL.

For `Cc1cc(-c2ccc3c(=O)c(C(N)=O)cn(-c4ccc(F)cc4)c3c2)on1` [Example 22f], the MNTC at 72 h ([1]; vero cells) was > 100 µg/mL and the “In Vivo MTL (Maximum tolerated dose)” value [2] was > 200.

In the case of `CCn1cc(C(N)=O)c(=O)c2ccc(-c3cc(C)no3)cc21` [Example 23d, 1-Ethyl-1,4-dihydro-7-(3-methyl-5-isoxazolyl)-4-oxo-3-quinolinecarboxamide], the MNTC at 72 h ([1]; vero cells) is reported as > 100 µg/mL and the “In Vivo MTL (Maximum tolerated dose)” value [2] is reported as > 200.

With `CCn1cc(C(N)=O)c(=O)c2ccc(-c3ccno3)cc21` [Example 24c, 1-Ethyl-1,4-dihydro-7-(5-isoxazolyl)-4-oxo-3-quinolinecarboxamide] the MNTC at 72 h ([1]; vero cells) was 12.5 µg/mL and the “In Vivo MTL (Maximum tolerated dose)” value [2] was > 200.

With `CCn1cc(C(N)=O)c(=O)c2cc(F)c(-c3ccncc3)cc21` [Example 25, 1-Ethyl-6-fluoro-1,4-dihydro-4-oxo-7-(4-pyridinyl)-3quinolinecarboxamide] the MNTC at 72 h ([1]; vero cells) was > 100 µg/mL.

Compound `CCCCCn1cc(C(N)=O)c(=O)c2ccc(-c3ccncc3)cc21` [Example 26, 1,4-Dihydro-4-oxo-1-pentyl-7-(4-pyridinyl)-3-quinolinecarboxamide] has an MNTC at 72 h ([1]; Vero cells) of 6.2 µg/mL.

In the case of `CCn1cc(C(N)=O)c(=O)c2ccc(-c3cccnc3)cc21` [Example 27b, 1-Ethyl-1,4-dihydro-4-oxo-7-(3-pyridinyl)-3-quinolinecarboxamide], the MNTC at 72 h ([1]; vero cells) is reported as 50 µg/mL and the “In Vivo MTL (Maximum tolerated dose)” value [2] is reported as 100.

With `CCn1cc(C(=O)NN)c(=O)c2ccc(-c3ccncc3)cc21` [Example 29, 1-Ethyl-1,4-dihydro-4-oxo-7-(4-pyridinyl)-3-quinolinecarboxylic acid hydrazide] the MNTC at 72 h ([1]; vero cells) was 50 µg/mL and the “In Vivo MTL (Maximum tolerated dose)” value [2] was 100.

In the case of `CCn1cc(C(=O)NO)c(=O)c2ccc(-c3ccncc3)cc21` [Example 30, 1-Ethyl-1,4-dihydro-N-hydroxy-4-oxo-7-(4-pyridinyl)-3quinolinecarboxamide], the MNTC at 72 h ([1]; vero cells) is reported as 25 µg/mL and the “In Vivo MTL (Maximum tolerated dose)” value [2] is reported as 100.

In the case of `NC(=O)c1cn(-c2ccc(Cl)cc2)c2cc(-c3ccncc3)ccc2c1=O` [Example 32, 1-(4-Chlorophenyl)-1,4-dihydro-7-(4-pyridinyl)-4-oxo-3quinolinecarboxamide], the minimal effective dose (herpes simplex virus) is reported as 50 mg/kg/day and the MNTC at 72 h ([1]; Vero cells) is reported as > 25 µg/mL.

For `Cc1ccc(-n2cc(C(N)=O)c(=O)c3ccc(-c4ccncc4)cc32)cc1` [Example 33, 1,4-Dihydro-1-(4-methylphenyl)-7-(4-pyridinyl)-4-oxo-3quinolinecarboxamide], the MNTC at 72 h ([1]; vero cells) was > 25 µg/mL and the “In Vivo MTL (Maximum tolerated dose)” value [2] was 50.

With `NC(=O)c1cn(-c2ccccc2F)c2cc(-c3ccncc3)ccc2c1=O` [Example 34, 1,4-Dihydro-1-(2-fluorophenyl)-7-(4-pyridinyl)-4-oxo-3quinolinecarboxamide] the MNTC at 72 h ([1]; vero cells) was 1.6 µg/mL and the “In Vivo MTL (Maximum tolerated dose)” value [2] was 100.

For `NC(=O)c1cn(-c2ccc(C(F)(F)F)cc2)c2cc(-c3ccncc3)ccc2c1=O` [Example 35, 1,4-Dihydro-7-(4-pyridinyl)-1-(4-trifluoromethylphenyl)-4-oxo-3-quinolinecarboxamide], the MNTC at 72 h ([1]; vero cells) was > 100 µg/mL and the “In Vivo MTL (Maximum tolerated dose)” value [2] was 50.

For `CCn1cc(C(=O)NN)c(=O)c2ccc(-c3ccccc3)cc21` [Example 36, 1-Ethyl-1,4-dihydro-4-oxo-7-phenyl-3-quinolinecarboxylic acid hydrazide], the MNTC at 72 h ([1]; vero cells) was 25 µg/mL and the “In Vivo MTL (Maximum tolerated dose)” value [2] was > 200.

For `CCn1c(N)c(C(N)=O)c(=O)c2ccc(-c3ccncc3)cc21` [Example 40b, 2-Amino-1,4-dihydro-1-ethyl-4-oxo-7-(4-pyridinyl)-3quinolinecarboxamide], the MNTC at 72 h ([1]; vero cells) was > 12.5 µg/mL and the “In Vivo MTL (Maximum tolerated dose)” value [2] was > 100.

For `NC(=O)c1cn(-c2ccc(F)cc2)c2cc(-c3ccccc3)ccc2c1=O` [Example 44, 1,4-Dihydro-1-(4-fluorophenyl)-4-oxo-7-phenyl-3-quinolinecarboxamide], the MNTC at 72 h ([1]; vero cells) was 12.5 µg/mL and the “In Vivo MTL (Maximum tolerated dose)” value [2] was > 200.

With `NC(=O)c1c(O)n(-c2ccc(F)cc2)c2cc(-c3ccncc3)ccc2c1=O` [Example 47e, 1,4-Dihydro-1-(4-fluorophenyl)-2-hydroxy-7-(4-pyridinyl)4-oxo-3-quinolinecarboxamide] the MNTC at 72 h ([1]; vero cells) was > 100 µg/mL.

With `NC(=O)c1cn(-c2ccc(F)cc2)c2cc(-c3ccncc3)c(F)cc2c1=O` [Example 48c] the MNTC at 72 h ([1]; vero cells) was 6.25 µg/mL and the “In Vivo MTL (Maximum tolerated dose)” value [2] was > 100.
